# Target: SUV420H1 enzyme (Homo sapiens, UniProt Q4FZB7)
# Assay: TR-FRET SAH SUV420H1 enzyme inhibition assay
# Assay type: biochemical
# Settings: Histone Peptide H4(8-30)me1 and SAM, overnight at room temp, TR-FRET detection of SAH, read-out: TR-FRET SAH_SUV420H1 IC50
# Experimental: Test compounds were dispensed by a Labcyte Echo in 384-well low volume assay plates with 3-fold serial dilutions from 50 μM to 0.00075 μM. 5 μL of SUV420H1 enzyme (Abbvie) at 90 nM was added to all wells except the no enzyme control wells, and incubated for 30 minutes at room temp before 5 μL of Histone Peptide H4(8-30)me1 (Anaspec) at 5 nM and SAM at 4 nM was added to all wells. The plates were incubated in a humidified chamber overnight at room temp and then 10 μL of the detection reagent that contained RIPA buffer (50 mM Tris-HCl, pH 8.0, 150 mM sodium chloride, 1.0% Igepal CA-630 (NP-40), 0.5% sodium deoxycholate and 0.1% sodium dodecyl sulfate) (Sigma) with 2 nM of Terbium chelate anti S-adenosyl-L-homocysteine (SAH) (Abbvie) antibody and Oregon Green labeled SAH at 4 nM was added. The plates were further incubated for 4 hours at room temperature. The plates were read in a Perkin Elmer Envision using a TR-FRET protocol with Excitation set at 335 nm and Emission at 520 and 495 nm. To generate dose response curves the data is normalized to percent inhibition by setting the average of the plus and minus enzyme control wells to 0% and 100% inhibition respectively. The IC50 values for the compounds are generated by fitting the normalized data with Accelrys Assay Explorer 3.3 to a sigmoidal curve model using […] regression, Y=(100*x^n)/(K^n+x^n), where Y is the measured response, x is the compound concentration, n is the Hill Slope and K is the IC50 and the lower and higher asymptotes are constrained to 0 and 100 respectively.
# Chain of SUV420H1 enzyme (Q4FZB7 whole entry): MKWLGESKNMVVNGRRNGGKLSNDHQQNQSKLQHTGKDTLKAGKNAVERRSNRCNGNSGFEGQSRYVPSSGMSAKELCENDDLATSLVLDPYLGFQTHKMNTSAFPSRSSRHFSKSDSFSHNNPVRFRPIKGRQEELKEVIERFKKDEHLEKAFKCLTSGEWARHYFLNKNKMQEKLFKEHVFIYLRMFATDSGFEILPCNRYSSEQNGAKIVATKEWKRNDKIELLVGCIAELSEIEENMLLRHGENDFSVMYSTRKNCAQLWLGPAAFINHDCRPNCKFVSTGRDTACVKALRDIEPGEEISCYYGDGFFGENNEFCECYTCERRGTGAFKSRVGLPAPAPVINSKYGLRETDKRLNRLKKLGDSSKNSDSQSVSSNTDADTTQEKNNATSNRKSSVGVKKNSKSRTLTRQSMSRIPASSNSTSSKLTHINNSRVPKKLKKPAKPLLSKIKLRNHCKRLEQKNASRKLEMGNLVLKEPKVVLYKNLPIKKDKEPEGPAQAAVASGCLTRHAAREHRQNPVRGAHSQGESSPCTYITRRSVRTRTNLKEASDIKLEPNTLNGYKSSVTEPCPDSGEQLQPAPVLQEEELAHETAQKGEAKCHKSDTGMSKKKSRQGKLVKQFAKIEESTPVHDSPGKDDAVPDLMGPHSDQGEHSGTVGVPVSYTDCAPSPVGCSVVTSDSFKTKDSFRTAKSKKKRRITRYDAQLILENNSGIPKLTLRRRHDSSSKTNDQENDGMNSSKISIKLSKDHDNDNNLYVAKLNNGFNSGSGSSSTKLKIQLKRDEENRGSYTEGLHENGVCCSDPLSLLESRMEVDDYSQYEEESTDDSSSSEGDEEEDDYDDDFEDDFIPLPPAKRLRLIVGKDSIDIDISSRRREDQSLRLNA
row,IC50,SMILES
1,2240 nM,"CCC(=O)c1cc2cc(Cl)cc(Cn3cnc4c(N)ncnc43)c2[nH]1 [Example 90, 1-{7-[(6-amino-9H-purin-9-yl)methyl]-5-chloro-1H-indol-2-yl}propan-1-one]"
2,2020 nM,"Nc1ncnc2c1ncn2Cc1cc(Cl)cc2cc(CNC(=O)c3ccc4[nH]nnc4c3)[nH]c12 [Example 332, N-({7-[(6-amino-9H-purin-9-yl)methyl]-5-chloro-1H-indol-2-yl}methyl)-1H-benzotriazole-5-carboxamide]"
3,41.1 nM,"N#Cc1ccc(C(=O)NCc2cc3cc(C4=CCNCC4)cc(Cn4cnc5c(N)ncnc54)c3[nH]2)c(F)c1 [Example 286, N-({7-[(6-amino-9H-purin-9-yl)methyl]-5-(1,2,3,6-tetrahydropyridin-4-yl)-1H-indol-2-yl}methyl)-4-cyano-2-fluorobenzamide]"
4,72.3 nM,"N#Cc1ccc(C(=O)NCc2cc3c(Cl)ccc(Cn4cnc5c(N)ncnc54)c3[nH]2)c(Cl)c1 [Example 282, N-({7-[(6-amino-9H-purin-9-yl)methyl]-4-chloro-1H-indol-2-yl}methyl)-2-chloro-4-cyanobenzamide]"
5,28.8 nM,"CC(=O)N1CC=C(c2cc(Cn3cnc4c(N)ncnc43)c3[nH]c(CNC(=O)c4cc(C)nnc4C)cc3c2)CC1 [Example 237, N-({5-(1-acetyl-1,2,3,6-tetrahydropyridin-4-yl)-7-[(6-amino-9H-purin-9-yl)methyl]-1H-indol-2-yl}methyl)-3,6-dimethylpyridazine-4-carboxamide]"
6,25300 nM,"CC(C)(O)CC(=O)NCc1cc2cc(Cl)cc(Cn3cnc4c(N)ncnc43)c2[nH]1 [Example 103, N-({7-[(6-amino-9H-purin-9-yl)methyl]-5-chloro-1H-indol-2-yl}methyl)-3-hydroxy-3-methylbutanamide]"
7,382 nM,"Cc1nocc1C(=O)NCc1cc2cc(Cl)cc(Cn3cnc4c(N)ncnc43)c2[nH]1 [Example 150, N-({7-[(6-amino-9H-purin-9-yl)methyl]-5-chloro-1H-indol-2-yl}methyl)-3-methyl-1,2-oxazole-4-carboxamide]"
8,12600 nM,"Nc1ncnc2c1ncn2Cc1cc(Cl)cc2cc(CNC(=O)c3ccc[nH]c3=O)[nH]c12 [Example 198, N-({7-[(6-amino-9H-purin-9-yl)methyl]-5-chloro-1H-indol-2-yl}methyl)-2-oxo-1,2-dihydropyridine-3-carboxamide]"
9,> 50000 nM,"N#Cc1c[nH]c2ccc(C(=O)NCc3cc4cc(Cl)cc(Cn5cnc6c(N)ncnc65)c4[nH]3)cc12 [Example 369, N-({7-[(6-amino-9H-purin-9-yl)methyl]-5-chloro-1H-indol-2-yl}methyl)-3-cyano-1H-indole-5-carboxamide]"
10,321 nM,"CS(=O)(=O)c1ccc(-c2cc(Cn3cnc4c(N)ncnc43)c3[nH]c(CN)cc3c2)cc1 [Example 37, 9-({2-(aminomethyl)-5-[4-(methylsulfonyl)phenyl]-1H-indol-7-yl}methyl)-9H-purin-6-amine]"
11,6240 nM,"Nc1ncnc2c1ncn2Cc1cc(Cl)cc2cc(CNC(=O)c3ccc(Cl)cc3)[nH]c12 [Example 221, N-({7-[(6-amino-9H-purin-9-yl)methyl]-5-chloro-1H-indol-2-yl}methyl)-4-chlorobenzamide]"
12,2410 nM,"COc1ccccc1-c1cc(Cn2cnc3c(N)ncnc32)c2[nH]c(CN)cc2c1 [Example 36, 9-{[2-(aminomethyl)-5-(2-methoxyphenyl)-1H-indol-7-yl]methyl}-9H-purin-6-amine]"
13,27.7 nM,"CC(=O)N1CC=C(c2cc(Cn3cnc4c(N)ncnc43)c3[nH]c(CNC(=O)c4ccnnc4C)cc3c2)CC1 [Example 203, N-({5-(1-acetyl-1,2,3,6-tetrahydropyridin-4-yl)-7-[(6-amino-9H-purin-9-yl)methyl]-1H-indol-2-yl}methyl)-3-methylpyridazine-4-carboxamide]"
14,426 nM,"COc1ccc(-c2cc(Cn3cnc4c(N)ncnc43)c3[nH]c(CN)cc3c2)cn1 [Example 28, 9-{[2-(aminomethyl)-5-(6-methoxypyridin-3-yl)-1H-indol-7-yl]methyl}-9H-purin-6-amine]"
15,4750 nM,"COc1cscc1C(=O)NCc1cc2cc(Cl)cc(Cn3cnc4c(N)ncnc43)c2[nH]1 [Example 158, N-({7-[(6-amino-9H-purin-9-yl)methyl]-5-chloro-1H-indol-2-yl}methyl)-4-methoxythiophene-3-carboxamide]"
16,7290 nM,"Cc1ccc(C(=O)NCc2cc3cc(Cl)cc(Cn4cnc5c(N)ncnc54)c3[nH]2)cc1 [Example 246, N-({7-[(6-amino-9H-purin-9-yl)methyl]-5-chloro-1H-indol-2-yl}methyl)-4-methylbenzamide]"
17,11800 nM,"CCCC(=O)NCc1cc2cc(Cl)cc(Cn3cnc4c(N)ncnc43)c2[nH]1 [Example 98, N-({7-[(6-amino-9H-purin-9-yl)methyl]-5-chloro-1H-indol-2-yl}methyl)butanamide]"

row,IC50,SMILES
1,52.6 nM,"N#Cc1cc(Cl)c(C(=O)NCc2cc3cc(Cl)cc(Cn4cnc5c(N)ncnc54)c3[nH]2)c(Cl)c1 [Example 283, N-({7-[(6-amino-9H-purin-9-yl)methyl]-5-chloro-1H-indol-2-yl}methyl)-2,6-dichloro-4-cyanobenzamide]"
2,915 nM,"CN(C)C(=O)c1ccc(-c2ccc(Cn3cnc4c(N)ncnc43)c3[nH]c(CN)cc23)cc1 [Example 86, 4-{2-(aminomethyl)-7-[(6-amino-9H-purin-9-yl)methyl]-1H-indol-4-yl}-N,N-dimethylbenzamide]"
3,663 nM,"NCc1cc2c(-c3cccnc3)ccc(Cn3cnc4c(N)ncnc43)c2[nH]1 [Example 69, 9-{[2-(aminomethyl)-4-(pyridin-3-yl)-1H-indol-7-yl]methyl}-9H-purin-6-amine]"
4,14100 nM,"Cc1nc(N)c2ncn(Cc3cccc4cc[nH]c34)c2n1 [Example 4, 9-(1H-indol-7-ylmethyl)-2-methyl-9H-purin-6-amine]"
5,1280 nM,"Cn1nnc2cc(C(=O)NCc3cc4cc(Cl)cc(Cn5cnc6c(N)ncnc65)c4[nH]3)ccc21 [Example 352, N-({7-[(6-amino-9H-purin-9-yl)methyl]-5-chloro-1H-indol-2-yl}methyl)-1-methyl-1H-benzotriazole-5-carboxamide]"
6,9380 nM,"Cc1cccc(C(=O)NCc2cc3cc(Cl)cc(Cn4cnc5c(N)ncnc54)c3[nH]2)c1 [Example 247, N-({7-[(6-amino-9H-purin-9-yl)methyl]-5-chloro-1H-indol-2-yl}methyl)-3-methylbenzamide]"
7,723 nM,"COc1ccc(-c2cc(Cn3cnc4c(N)ncnc43)c3[nH]c(CN)cc3c2)cc1 [Example 34, 9-{[2-(aminomethyl)-5-(4-methoxyphenyl)-1H-indol-7-yl]methyl}-9H-purin-6-amine]"
8,2480 nM,"Nc1ncnc2c1ncn2Cc1cc(Cl)cc2cc(CNC(=O)Cc3cccnc3)[nH]c12 [Example 231, N-({7-[(6-amino-9H-purin-9-yl)methyl]-5-chloro-1H-indol-2-yl}methyl)-2-(pyridin-3-yl)acetamide]"
9,943 nM,"Nc1ncnc2c1ncn2Cc1cc(Cl)cc2cc(CNCc3ccccc3)[nH]c12 [Example 207, 9-({2-[(benzylamino)methyl]-5-chloro-1H-indol-7-yl}methyl)-9H-purin-6-amine]"
10,236 nM,"Cc1ncccc1C(=O)NCc1cc2cc(Cl)cc(Cn3cnc4c(N)ncnc43)c2[nH]1 [Example 233, N-({7-[(6-amino-9H-purin-9-yl)methyl]-5-chloro-1H-indol-2-yl}methyl)-2-methylpyridine-3-carboxamide]"
11,947 nM,"Nc1ncnc2c1ncn2Cc1cc(Cl)cc2cc(CNC(=O)c3ccc4cn[nH]c4c3)[nH]c12 [Example 342, N-({7-[(6-amino-9H-purin-9-yl)methyl]-5-chloro-1H-indol-2-yl}methyl)-1H-indazole-6-carboxamide]"
12,458 nM,"NCc1cc2cc(-c3ccccc3)cc(Cn3cnc4c(N)ncnc43)c2[nH]1 [Example 22, 9-{[2-(aminomethyl)-5-phenyl-1H-indol-7-yl]methyl}-9H-purin-6-amine]"
13,1950 nM,"Nc1ncnc2c1ncn2Cc1cc(Cl)cc2cc(C(N)c3ccccc3)[nH]c12 (stereo not drawn) [Example 194, 9-({2-[amino(phenyl)methyl]-5-chloro-1H-indol-7-yl}methyl)-9H-purin-6-amine]"
14,> 50000 nM,"Nc1ncnc2c1ncn2Cc1cc(Cl)cc2cc(CNC(=O)c3ccccn3)[nH]c12 [Example 195, N-({7-[(6-amino-9H-purin-9-yl)methyl]-5-chloro-1H-indol-2-yl}methyl)pyridine-2-carboxamide]"
15,> 50000 nM,"CC(=O)c1cc2cc(Cl)cc(Cn3cnc4c(N)ncnc43)c2[nH]1 [Example 87, 1-{7-[(6-amino-9H-purin-9-yl)methyl]-5-chloro-1H-indol-2-yl}ethanone]"
16,1030 nM,"Cc1ncsc1C(=O)NCc1cc2cc(Cl)cc(Cn3cnc4c(N)ncnc43)c2[nH]1 [Example 148, N-({7-[(6-amino-9H-purin-9-yl)methyl]-5-chloro-1H-indol-2-yl}methyl)-4-methyl-1,3-thiazole-5-carboxamide]"

# Reference: patent publication US9932340B2, “Substituted indoles” (AbbVie Inc., priority 2014, dated 2018)
